Reference: ChEMBL document CHEMBL5058642, “Data for DCP probe TP-051” (2022)
One block for each compound: values may come before it.

Legend:
[1] = target: T1, 5-hydroxytryptamine receptor 3A (Homo sapiens) (UniProt P46098); experiment: Inhibition of Serotonin (5-Hydroxytryptamine) 5-HT3 at 10 µM in the Eurofins-Panlabs radioligand binding assay (Eurofins_assay_271910); parameters: ligand concentration 0.69 nM; conditions: Compound concentration 10.0 uM
T1 sequence (whole entry): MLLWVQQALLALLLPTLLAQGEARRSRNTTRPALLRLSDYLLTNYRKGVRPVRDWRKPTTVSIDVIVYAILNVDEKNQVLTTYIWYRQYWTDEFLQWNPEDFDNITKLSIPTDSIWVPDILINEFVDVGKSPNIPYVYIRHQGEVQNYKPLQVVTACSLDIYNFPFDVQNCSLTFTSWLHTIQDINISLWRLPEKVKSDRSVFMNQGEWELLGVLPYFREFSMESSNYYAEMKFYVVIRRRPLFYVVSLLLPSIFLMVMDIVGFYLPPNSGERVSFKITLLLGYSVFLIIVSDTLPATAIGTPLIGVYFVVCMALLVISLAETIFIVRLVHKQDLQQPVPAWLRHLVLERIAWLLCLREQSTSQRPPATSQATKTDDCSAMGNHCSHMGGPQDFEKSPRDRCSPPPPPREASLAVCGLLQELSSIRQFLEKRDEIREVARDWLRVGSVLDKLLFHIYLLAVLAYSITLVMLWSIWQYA

[2] = target: Prostaglandin G/H synthase 2 (Homo sapiens) (UniProt P35354); experiment: Inhibition of Cyclooxygenase COX-2 at compound concentration of 10.0 uM in the Eurofins-Panlabs enzyme assay (Eurofins_assay_118010); parameters: substrate with concentration 0.3 uM Arachidonic acid, incubation time 15 min, incubation temperature 37 C; conditions: Compound concentration 10.0 uM
Sequence of Prostaglandin G/H synthase 2 (Homo sapiens) (P35354 whole entry): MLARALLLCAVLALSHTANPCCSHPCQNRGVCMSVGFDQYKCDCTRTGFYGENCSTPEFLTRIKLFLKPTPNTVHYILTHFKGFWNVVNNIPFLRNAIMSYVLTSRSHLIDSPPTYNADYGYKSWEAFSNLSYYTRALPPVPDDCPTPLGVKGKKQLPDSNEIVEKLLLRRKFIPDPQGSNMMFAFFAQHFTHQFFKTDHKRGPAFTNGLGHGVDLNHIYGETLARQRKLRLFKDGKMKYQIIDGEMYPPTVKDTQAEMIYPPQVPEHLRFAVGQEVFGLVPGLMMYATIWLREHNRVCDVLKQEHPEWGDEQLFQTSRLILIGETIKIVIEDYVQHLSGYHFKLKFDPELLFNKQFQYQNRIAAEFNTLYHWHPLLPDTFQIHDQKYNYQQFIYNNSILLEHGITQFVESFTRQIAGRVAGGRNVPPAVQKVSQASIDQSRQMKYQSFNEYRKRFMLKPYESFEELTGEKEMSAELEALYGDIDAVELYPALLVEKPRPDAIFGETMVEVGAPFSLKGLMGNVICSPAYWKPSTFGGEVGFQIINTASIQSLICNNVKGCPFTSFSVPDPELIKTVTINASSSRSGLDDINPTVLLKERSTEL

D(4) dopamine receptor = D(4) dopamine receptor (Homo sapiens, UniProt P21917); experiment: GPCRScan assay: inhibition of D4; parameters: radioligand conc. used [nm] 0.6 – 1.7, parental cells Stable HEK
Sequence of D(4) dopamine receptor (P21917 whole entry): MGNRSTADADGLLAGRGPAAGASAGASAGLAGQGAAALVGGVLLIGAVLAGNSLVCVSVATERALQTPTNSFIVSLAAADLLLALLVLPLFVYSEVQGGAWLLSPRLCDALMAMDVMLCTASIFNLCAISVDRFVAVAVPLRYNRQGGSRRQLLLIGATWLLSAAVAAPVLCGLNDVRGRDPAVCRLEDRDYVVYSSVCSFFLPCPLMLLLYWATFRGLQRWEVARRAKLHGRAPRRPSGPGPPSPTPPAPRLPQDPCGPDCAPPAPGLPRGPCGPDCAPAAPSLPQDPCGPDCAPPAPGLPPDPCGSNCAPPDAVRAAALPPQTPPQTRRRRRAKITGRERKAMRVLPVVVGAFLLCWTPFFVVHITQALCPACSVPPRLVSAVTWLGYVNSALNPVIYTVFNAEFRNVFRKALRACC

[3] = target: T2, Muscarinic acetylcholine receptor M2 (Homo sapiens) (UniProt P08172); conditions: Compound concentration 10.0 uM
T2 sequence (whole entry): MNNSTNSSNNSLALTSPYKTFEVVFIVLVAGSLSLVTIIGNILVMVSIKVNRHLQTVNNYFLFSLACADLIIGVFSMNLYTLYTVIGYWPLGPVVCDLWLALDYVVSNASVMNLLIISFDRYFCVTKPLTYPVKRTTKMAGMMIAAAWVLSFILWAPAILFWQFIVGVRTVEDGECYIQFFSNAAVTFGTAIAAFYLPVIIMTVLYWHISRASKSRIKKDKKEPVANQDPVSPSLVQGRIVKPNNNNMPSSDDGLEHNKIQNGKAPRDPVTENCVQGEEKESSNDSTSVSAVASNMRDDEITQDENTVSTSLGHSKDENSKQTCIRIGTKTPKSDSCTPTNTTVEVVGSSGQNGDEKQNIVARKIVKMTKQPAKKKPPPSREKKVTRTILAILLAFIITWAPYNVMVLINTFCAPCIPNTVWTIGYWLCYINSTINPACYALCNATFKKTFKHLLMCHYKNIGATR

[4] = target: Receptor tyrosine-protein kinase erbB-2 (Homo sapiens) (UniProt P04626); experiment: Protein Tyrosine Kinase, ERBB2 (HER2) Eurofins-Panlabs enzyme assay; conditions: Compound concentration 10.0 uM
[5] = target: Xanthine dehydrogenase/oxidase (Bos taurus) (UniProt P80457); experiment: Xanthine Oxidase Eurofins-Panlabs enzyme assay; conditions: cattle, bovine milk xanthine oxidase, probe Xanthine, 165 µM
MAO-B = MAO-B (Homo sapiens, UniProt P27338); experiment: Inhibition of Monoamine Oxidase MAO-B at compound concentration of 10.0 uM in the Eurofins-Panlabs enzyme assay (Eurofins_assay_140120); parameters: substrate with concentration 50 uM Kynuramine, incubation time 60 min, incubation temperature 37 C; conditions: recombinant human MAO-B expressed in insect Hi5 cells, probe Kynuramine, 50 uM, compound concentration 10 uM
Sequence of MAO-B (P27338 whole entry): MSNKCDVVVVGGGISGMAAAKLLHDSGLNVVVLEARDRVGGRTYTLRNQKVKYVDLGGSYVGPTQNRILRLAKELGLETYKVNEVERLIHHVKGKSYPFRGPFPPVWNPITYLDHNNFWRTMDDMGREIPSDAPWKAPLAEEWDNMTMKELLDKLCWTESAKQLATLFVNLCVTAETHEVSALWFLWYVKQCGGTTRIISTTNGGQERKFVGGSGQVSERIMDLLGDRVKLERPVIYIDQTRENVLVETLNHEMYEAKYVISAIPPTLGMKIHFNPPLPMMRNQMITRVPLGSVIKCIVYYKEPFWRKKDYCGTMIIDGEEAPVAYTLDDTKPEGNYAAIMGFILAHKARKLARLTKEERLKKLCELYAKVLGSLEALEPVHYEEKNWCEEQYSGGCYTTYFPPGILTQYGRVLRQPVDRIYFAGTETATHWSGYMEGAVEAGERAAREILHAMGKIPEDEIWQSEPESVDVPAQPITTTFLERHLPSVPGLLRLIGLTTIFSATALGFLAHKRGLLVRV

[6] = target: Thromboxane-A synthase (Homo sapiens) (UniProt P24557); experiment: Thromboxane Synthase Eurofins-Panlabs enzyme assay; conditions: Compound concentration 10.0 uM
Sequence of Thromboxane-A synthase (Homo sapiens) (P24557 whole entry): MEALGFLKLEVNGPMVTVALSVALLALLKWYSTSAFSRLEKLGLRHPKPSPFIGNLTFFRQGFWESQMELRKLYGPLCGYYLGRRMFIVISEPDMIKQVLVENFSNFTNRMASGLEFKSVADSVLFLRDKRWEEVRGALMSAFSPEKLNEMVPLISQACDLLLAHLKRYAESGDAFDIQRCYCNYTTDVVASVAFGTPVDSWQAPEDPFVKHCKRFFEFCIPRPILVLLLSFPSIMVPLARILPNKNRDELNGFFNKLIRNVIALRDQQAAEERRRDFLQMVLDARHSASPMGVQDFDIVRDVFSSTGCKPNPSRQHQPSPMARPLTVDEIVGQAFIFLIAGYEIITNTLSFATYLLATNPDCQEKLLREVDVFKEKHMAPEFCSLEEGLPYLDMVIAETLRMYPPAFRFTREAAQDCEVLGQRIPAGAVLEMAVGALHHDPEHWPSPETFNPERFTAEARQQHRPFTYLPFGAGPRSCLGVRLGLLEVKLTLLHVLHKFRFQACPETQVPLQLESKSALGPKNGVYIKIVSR

[7] = target: Sodium-dependent noradrenaline transporter (Homo sapiens) (UniProt P23975); conditions: Compound concentration 10.0 uM
Sequence of Sodium-dependent noradrenaline transporter (Homo sapiens) (P23975 whole entry): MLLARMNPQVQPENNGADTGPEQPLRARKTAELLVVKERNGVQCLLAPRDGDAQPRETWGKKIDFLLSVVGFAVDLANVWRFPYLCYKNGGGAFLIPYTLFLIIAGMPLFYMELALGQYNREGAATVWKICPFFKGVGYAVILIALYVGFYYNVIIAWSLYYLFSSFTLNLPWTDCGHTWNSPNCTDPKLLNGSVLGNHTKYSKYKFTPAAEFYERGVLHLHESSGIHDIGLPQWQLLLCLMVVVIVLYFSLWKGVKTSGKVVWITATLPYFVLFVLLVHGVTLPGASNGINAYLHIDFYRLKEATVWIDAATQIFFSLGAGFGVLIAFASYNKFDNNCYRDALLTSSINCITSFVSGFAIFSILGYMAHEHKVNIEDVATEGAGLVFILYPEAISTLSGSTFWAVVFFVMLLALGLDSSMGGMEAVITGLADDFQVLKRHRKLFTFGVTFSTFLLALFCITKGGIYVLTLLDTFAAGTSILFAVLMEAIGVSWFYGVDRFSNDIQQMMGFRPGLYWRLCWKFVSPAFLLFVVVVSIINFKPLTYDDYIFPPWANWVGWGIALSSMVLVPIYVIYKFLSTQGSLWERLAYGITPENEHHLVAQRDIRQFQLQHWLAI

[8] = target: Alpha-1D adrenergic receptor (Homo sapiens, UniProt P25100); experiment: GPCRScan assay: inhibition of Alpha1D; parameters: radioligand conc. used [nm] 0.3 – 1.0, parental cells stable
[9] = target: Neuromedin-K receptor (Homo sapiens) (UniProt P29371); experiment: Tachykinin NK3 Eurofins-Panlabs radioligand binding assay; conditions: Compound concentration 10.0 uM
Sequence of Neuromedin-K receptor (Homo sapiens) (P29371 whole entry): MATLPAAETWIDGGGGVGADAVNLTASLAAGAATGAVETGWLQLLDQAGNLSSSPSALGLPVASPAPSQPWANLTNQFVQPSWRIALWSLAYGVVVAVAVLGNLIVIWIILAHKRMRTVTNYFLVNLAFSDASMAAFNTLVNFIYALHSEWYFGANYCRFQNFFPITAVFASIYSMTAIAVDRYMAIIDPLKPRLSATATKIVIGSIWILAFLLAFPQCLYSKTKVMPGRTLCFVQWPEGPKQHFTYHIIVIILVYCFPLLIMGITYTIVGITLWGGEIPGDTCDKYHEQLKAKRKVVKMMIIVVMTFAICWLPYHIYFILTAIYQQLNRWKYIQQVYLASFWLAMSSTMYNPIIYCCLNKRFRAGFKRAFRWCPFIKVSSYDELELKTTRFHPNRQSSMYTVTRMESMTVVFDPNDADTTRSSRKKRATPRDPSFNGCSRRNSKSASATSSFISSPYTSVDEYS

[10] = target: Cyclin-dependent kinase 1/cyclin B (Homo sapiens) (UniProt P06493+P14635+Q8WWL7+O95067); experiment: Protein Serine/Threonine Kinase, cdk1/Cyclin B Eurofins-Panlabs enzyme assay; type: protein-complex assay; conditions: Compound concentration 10.0 uM
[11] = target: Alpha-1B adrenergic receptor (Homo sapiens) (UniProt P35368); conditions: Compound concentration 10.0 uM
[12] = target: Prostaglandin G/H synthase 1 (Homo sapiens) (UniProt P23219); experiment: Inhibition of Cyclooxygenase COX-1 at compound concentration of 10.0 uM in the Eurofins-Panlabs enzyme assay (Eurofins_assay_116020); conditions: Compound concentration 10.0 uM
[13] = target: Cathepsin G (Homo sapiens) (UniProt P08311); experiment: Inhibition of Peptidase, CTSG (Cathepsin G) at 10 µM in the Eurofins-Panlabs enzyme assay (Eurofins_assay_112510); parameters: substrate with concentration; conditions: Compound concentration 10.0 uM
Sequence of Cathepsin G (Homo sapiens) (P08311 whole entry): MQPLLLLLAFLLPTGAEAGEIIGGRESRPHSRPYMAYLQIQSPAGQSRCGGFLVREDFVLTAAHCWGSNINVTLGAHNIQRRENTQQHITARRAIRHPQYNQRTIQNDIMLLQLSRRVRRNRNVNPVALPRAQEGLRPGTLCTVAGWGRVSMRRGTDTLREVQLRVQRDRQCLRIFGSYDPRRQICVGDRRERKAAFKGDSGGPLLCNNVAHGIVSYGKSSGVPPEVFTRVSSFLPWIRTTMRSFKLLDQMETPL

Rattus norvegicus [14] = organism: Rattus norvegicus; experiment: Protein Serine/Threonine Kinase, PKC, Non-Selective Eurofins-Panlabs enzyme assay; conditions: Compound concentration 10.0 uM
[15] = target: Epidermal growth factor receptor (Homo sapiens) (UniProt P00533); experiment: Protein Tyrosine Kinase, EGF Receptor Eurofins-Panlabs enzyme assay; parameters: substrate with concentration 10 µg/mL Poly(Glu:Tyr), incubation time 60 min, incubation temperature 25 °C; conditions: Compound concentration 10.0 uM
Sequence of Epidermal growth factor receptor (Homo sapiens) (P00533 whole entry): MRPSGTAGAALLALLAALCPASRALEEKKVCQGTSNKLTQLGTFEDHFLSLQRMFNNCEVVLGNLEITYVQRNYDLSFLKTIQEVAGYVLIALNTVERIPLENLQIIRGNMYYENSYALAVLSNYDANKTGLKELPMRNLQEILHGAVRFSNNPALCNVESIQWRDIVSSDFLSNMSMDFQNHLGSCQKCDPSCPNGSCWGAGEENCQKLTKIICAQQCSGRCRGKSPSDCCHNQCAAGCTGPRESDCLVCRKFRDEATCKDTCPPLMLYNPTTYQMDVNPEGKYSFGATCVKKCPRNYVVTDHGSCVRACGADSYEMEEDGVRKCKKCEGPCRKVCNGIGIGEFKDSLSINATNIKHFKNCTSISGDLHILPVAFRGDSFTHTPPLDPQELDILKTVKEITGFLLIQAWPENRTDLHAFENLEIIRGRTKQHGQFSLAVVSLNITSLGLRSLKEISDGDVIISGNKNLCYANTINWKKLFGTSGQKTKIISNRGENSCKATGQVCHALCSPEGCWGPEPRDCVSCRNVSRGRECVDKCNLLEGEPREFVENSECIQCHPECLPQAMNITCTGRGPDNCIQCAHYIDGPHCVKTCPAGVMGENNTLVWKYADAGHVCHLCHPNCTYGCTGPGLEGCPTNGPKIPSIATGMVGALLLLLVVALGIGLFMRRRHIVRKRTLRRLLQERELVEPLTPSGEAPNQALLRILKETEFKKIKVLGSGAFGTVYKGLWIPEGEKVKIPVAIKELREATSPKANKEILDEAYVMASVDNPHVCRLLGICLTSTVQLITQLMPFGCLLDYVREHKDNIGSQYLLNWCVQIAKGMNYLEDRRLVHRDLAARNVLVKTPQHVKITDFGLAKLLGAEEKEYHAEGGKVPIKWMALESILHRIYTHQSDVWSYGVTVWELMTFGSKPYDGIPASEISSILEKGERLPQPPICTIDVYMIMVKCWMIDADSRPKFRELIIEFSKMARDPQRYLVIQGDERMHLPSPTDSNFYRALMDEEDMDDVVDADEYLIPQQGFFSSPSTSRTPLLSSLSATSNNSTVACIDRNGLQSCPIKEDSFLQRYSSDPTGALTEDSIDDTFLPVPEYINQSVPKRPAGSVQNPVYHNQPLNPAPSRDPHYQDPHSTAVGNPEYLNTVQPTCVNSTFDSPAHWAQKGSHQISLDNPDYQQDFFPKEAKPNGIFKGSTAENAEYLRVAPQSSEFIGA

Rattus norvegicus [16] = organism: Rattus norvegicus; experiment: ATPase, Ca2+ Eurofins-Panlabs enzyme assay; conditions: Compound concentration 10.0 uM
[17] = target: Free fatty acid receptor 1 (Homo sapiens, UniProt O14842); experiment: FLIPR functional assay (Ca influx activity of CHO cells)
Sequence of Free fatty acid receptor 1 (O14842 whole entry): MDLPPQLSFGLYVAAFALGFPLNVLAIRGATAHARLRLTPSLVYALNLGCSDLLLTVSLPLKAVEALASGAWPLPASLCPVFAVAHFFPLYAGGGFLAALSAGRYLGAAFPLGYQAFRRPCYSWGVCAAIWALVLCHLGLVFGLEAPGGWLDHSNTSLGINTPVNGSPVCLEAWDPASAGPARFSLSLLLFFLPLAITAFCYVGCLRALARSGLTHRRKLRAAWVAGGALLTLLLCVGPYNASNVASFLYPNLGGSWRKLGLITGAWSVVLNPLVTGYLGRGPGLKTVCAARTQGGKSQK

[18] = target: Cannabinoid receptor 1 (Homo sapiens) (UniProt P21554); experiment: Cannabinoid CB1 Eurofins-Panlabs radioligand binding assay; conditions: Compound concentration 10.0 uM
[19] = GPCRScan assay: inhibition of GABA/PBR; parameters: species or system Rattus norvegicus; radioligand conc. used [nm] 0.3 – 2.0, parental cells brain tissue

inhibition [1]: -3%
inhibition [2]: -5%
Ki (D(4) dopamine receptor): 1230 nM
inhibition [3]: 2.31%
inhibition [4]: -9%
inhibition at 30 min, 10 µM [5]: 1% (not active)
inhibition at 60 min, 10 µM (MAO-B): 6% (not active)
inhibition [6]: 64%
inhibition [7]: 19.1%
Ki [8]: 7.52 µM
inhibition [9]: 30%
inhibition [10]: 14%
inhibition [11]: 0.86%
inhibition [12]: 14%
inhibition [13]: 20%
inhibition (Rattus norvegicus [14]): -8%
inhibition [15]: 61%
inhibition (Rattus norvegicus [16]): -1%
Compound: Cc1cc(OC2CCS(=O)(=O)CC2)cc(C)c1-c1cccc(COc2ccc(CCC(=O)O)c(F)c2)c1

Compound: Cc1cc(OC2CCS(=O)(=O)CC2)cc(C)c1-c1cccc(COc2ccc(C(=O)O)c(F)c2)c1
EC50 [17]: > 10 µM (not active)
inhibition [18]: -6%
Ki [19]: 2750 nM
pKi [19]: 5.56
